Legend:
Format in all cases: cell-based
β1AR [1] = molecular target: T1, β1AR (Homo sapiens, UniProt P08588); assay: cAMP production in β1-HEK293 cells; conditions: 100 µM
β1AR [2] = molecular target: T1, β1AR; assay: β-arrestin2 recruitment; conditions: β1-HTLA cells
β2AR = β2AR (Homo sapiens, UniProt P07550); assay: β-arrestin2 recruitment; conditions: β2-Tango HTLA; agonist alone or with 100 µM PAGln (Fig 2A, 2C)
Sequence of β2AR (P07550 whole entry): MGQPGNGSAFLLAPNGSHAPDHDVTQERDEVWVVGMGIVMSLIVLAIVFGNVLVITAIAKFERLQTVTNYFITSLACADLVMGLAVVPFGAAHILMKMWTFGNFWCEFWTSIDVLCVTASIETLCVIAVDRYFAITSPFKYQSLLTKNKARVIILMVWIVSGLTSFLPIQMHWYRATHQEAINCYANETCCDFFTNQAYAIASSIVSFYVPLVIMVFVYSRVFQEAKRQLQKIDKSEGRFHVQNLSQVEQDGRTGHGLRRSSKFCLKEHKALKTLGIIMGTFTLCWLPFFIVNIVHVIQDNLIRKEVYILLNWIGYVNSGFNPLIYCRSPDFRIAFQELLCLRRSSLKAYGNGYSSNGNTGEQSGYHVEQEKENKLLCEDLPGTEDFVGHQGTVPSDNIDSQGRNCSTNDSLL

T1 sequence (P08588 whole entry): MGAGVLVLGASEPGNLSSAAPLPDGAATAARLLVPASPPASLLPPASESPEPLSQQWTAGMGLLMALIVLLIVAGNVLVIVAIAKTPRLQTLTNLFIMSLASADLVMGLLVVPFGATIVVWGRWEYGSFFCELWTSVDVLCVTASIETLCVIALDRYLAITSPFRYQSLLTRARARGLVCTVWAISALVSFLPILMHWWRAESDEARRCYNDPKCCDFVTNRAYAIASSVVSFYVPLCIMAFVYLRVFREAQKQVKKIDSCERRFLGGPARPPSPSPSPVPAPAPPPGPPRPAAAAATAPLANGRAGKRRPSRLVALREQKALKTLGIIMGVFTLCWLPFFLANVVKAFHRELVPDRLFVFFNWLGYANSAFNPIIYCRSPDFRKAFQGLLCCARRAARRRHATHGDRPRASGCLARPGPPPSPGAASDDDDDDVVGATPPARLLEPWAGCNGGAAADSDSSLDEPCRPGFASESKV

cAMP production by compound alone (β1AR [1]) | effect of PAGln on ISO- or NE-induced β-arrestin2 recruitment (β1AR [2]) | Bmax of β-arrestin2 recruitment (β2AR) | SMILES
failed to induce cAMP production |  |  | N[C@@H](Cc1ccccc1)C(=O)O [Phe, phenylalanine]
failed to induce cAMP production | failed to show any significant effect |  | NC(=O)CC[C@H](NC(=O)Cc1ccccc1)C(=O)O [PAGln, Phenylacetylglutamine]
 |  | 3137 RLU | NC[C@H](O)c1ccc(O)c(O)c1 [NE, norepinephrine]
